Measurements from US20220040136A1, “TREATMENT OF VULVOVAGINAL DISORDERS” (University of Rochester, priority 2018, published 2022).

Key:
Mouse vulvar tissue = experiment: Mouse vulvar explants (4 mm punch biopsy), IL-1β-stimulated PGE2 production; type: cell-based; conditions: pre-treatment 18 hours, then IL-1β 10 pg/ml 18 hours; range of doses, as low as 1 nM; FIG. 6
Procedure: FIG. 6 is a diagram showing that SPMs inhibit PGE2 production from mouse vulvar tissue. Mouse vulvar tissue (4 mm punch biopsies) was collected and bisected then pre-treated in culture medium with either Maresin 1 or RvD2 at indicated concentrations for 18 hours, followed by an additional 18 hours stimulation with IL-1β (10 pg/ml). Culture medium was collected and analyzed for PGE2 content. Mean+/−SEM; n=3 replicate cultures. ANOVA * p<0.05 vs. vehicle.
Although SPM structure and therapeutic efficacy is conserved across species,^5-7 inventors first confirmed that mouse vulvar tissues responded to SPM treatment in vitro by culturing mouse vulvar explants (4 mm punch biopsy). The explants were stimulated with IL-1, and then assays were carried to assess the ability of Maresin 1 or RvD2 to reduce PGE2 production under the established pre-treatment regimen.

C57BL/6 mice = experiment: Mouse model of LPV (zymosan-induced vulvar allodynia), topical Maresin 1; type: in vivo; conditions: topical 1 μg/mouse/day, daily for 4 weeks
Text: FIG. 9 is a diagram showing that PGE2 in vaginal lavage is associated with pain threshold. After induction of allodynia for up to 6 weeks (indicated by reduced pain threshold, red line), Maresin 1 was applied to C57BL/6 mouse vulvas to reduce pain and increase pain threshold. PGE2 content in vaginal lavage samples (blue line) rapidly increases during the induction phase, indicating pain-associated inflammation waning with treatment. SEM shown, n=8.
In the mouse model, zymosan (a proinflammatory yeast cell wall preparation) was used to induce sustained vulvar allodynia, measured by pain threshold testing. […]
Using this approach, inventors confirmed that one could induce vulvar allodynia, measure pain responses via mechanical threshold determination, and assess treatment responses. However, inventors implemented several modifications to improve the robustness of the model including the following: 1) use a genetically tractable inbred strain, 2) validation of the use of an electronic von Frey (EvF) system, 3) assessment of the impact of behavioral conditioning on pain response, 4) weekly collection of vulvovaginal lavages for proinflammatory mediator quantification, and 5) testing the ability of a selected SPM (e.g., Maresin 1) to modulate pain and inflammation in our new model. […]

SMILES: CC/C=C\C/C=C\C[C@H](O)\C=C/C=C/C=C/[C@H](O)C/C=C\CCC(=O)O [Maresin 1, 7R,14S-docosa-4Z,8E,10E,12Z,16Z,19Z-hexaenoic acid]
- PGE2 responses following IL-1β treatment (Mouse vulvar tissue): significantly suppressed
- PGE2 levels in vaginal lavage (C57BL/6 mice): suppressed and maintained at levels below baseline
- pain threshold (electronic von Frey) (C57BL/6 mice; after allodynia induction): complete restoration to the pre-induction thresholds
